Source: ChEMBL document CHEMBL3632556, “Synthesis and biological evaluation of new C-10 substituted dithranol pleiotropic hybrids” (Bioorg Med Chem, 2015)

How the values were obtained:
[1] = Inhibition of soybean LOX assessed as reduction in conversion of sodium linoleate to 13-hydroperoxylinoleic acid by UV analysis; set-up: species or system Glycine max
[2] = Antioxidant activity assessed as increase of DPPH free radical scavenging activity by measuring reducing activity at 100 uM after 60 mins by spectrophotometry; type: physicochemical; conditions: 1 h
Rattus norvegicus [3] = assay: Acute toxicity in Fisher 344 rat up to 0.1 mmol/kg, ip; type: organism-based; conditions: in vivo
[4] = Antioxidant activity assessed as inhibition of AAPH-induced linoleic acid lipid peroxidation at 100 uM; type: physicochemical
[5] = Lipophilicity, RM of the compound by RP-TLC method; type: physicochemical
[6] = Antioxidant activity assessed as DPPH free radical scavenging activity by measuring reducing activity at 100 uM after 20 mins by spectrophotometry; type: physicochemical; set-up: scale not given: the % may be the effect or the level left
Rattus norvegicus [7] = assay: Anti-inflammatory activity in Fisher 344 rat assessed as inhibition of carrageenan-induced paw edema at 0.01 mmol/kg, ip after 3.5 hrs; type: functional; conditions: Fisher 344, ip
[8] = Cytotoxicity against human HaCaT cells assessed as cell survival at 0.01 uM after 48 hrs by MTT assay (reference value: 100%); type: cell-based; conditions: read-out: Survival
HaCaT [9] = assay: Antiproliferative activity against human HaCaT cells after 24 hrs by MTT assay; type: functional, cell-based
[10] = Cytotoxicity against human HaCaT cells assessed as cell survival at 0.1 uM after 48 hrs by MTT assay (reference value: 96.75 +/- 1.77%); type: cell-based; conditions: read-out: Survival
[11] = Cytotoxicity against human HaCaT cells assessed as cell survival at 10 uM after 48 hrs by MTT assay (reference value: 95.75 +/- 2.47%); type: cell-based; conditions: read-out: Survival
[12] = Cytotoxicity against human HaCaT cells assessed as cell survival at 100 uM after 48 hrs by MTT assay (reference value: 88.07 +/- 9.81%); type: cell-based; conditions: read-out: Survival
[13] = Cytotoxicity against human HaCaT cells assessed as cell survival at 1 uM after 48 hrs by MTT assay (reference value: 97.50 +/- 0.71%); type: cell-based; conditions: read-out: Survival
[14] = Drug degradation in DMSO up to 48 hrs; type: physicochemical
Glycine max = assay: Inhibition of soybean LOX assessed as reduction in conversion of sodium linoleate to 13-hydroperoxylinoleic acid at 100 uM by UV analysis
[15] = Chemical stability in DMSO assessed as compound degradation at 1 mM after 5 days by HPLC analysis; type: physicochemical; conditions: 120 h, 1000 µM
[16] = Drug metabolism in DMSO assessed as formation of oxidative product danthron at 1 mM after 2 days by HPLC analysis; type: physicochemical; conditions: 48 h, 1000 µM
HaCaT [17] = assay: Antiproliferative activity against human HaCaT cells; type: functional, cell-based

SMILES | IC50 ([1]; read-out: IC50) [µM] | Activity [2] | Activity (Rattus norvegicus [3]) | inhibition (INH) [4] | Rm [5] | Activity [6] | inhibition in vivo at 10 µmol/kg (Rattus norvegicus [7]) [%] | IC50 [1] | viability at 48 h, 0.01 µM [8] [%] | IC50 (HaCaT [9]) [µM] | viability at 48 h, 0.1 µM [10] [%] | viability at 48 h, 10 µM [11] [%] | viability at 48 h, 100 µM [12] [%] | viability at 48 h, 1 µM [13] [%] | Stability [14] | inhibition (Glycine max) [%] | Stability [15] | Stability [16] | IC50 (HaCaT [17]) [µM]
O=C(CC1c2cccc(O)c2C(=O)c2c(O)cccc21)NCc1ccccc1 | 7.9 | Active | Non-toxic | 66% | 0.66 | 20% | 35 | – | – | – | – | – | – | – | – | – | – | – | –
COc1ccc2c(c1)c(CC(=O)O)c(C)n2C(=O)c1ccc(Cl)cc1 [INDOMETHACIN] | – | – | – | – | – | – | 47 | – | – | – | – | – | – | – | – | – | – | – | –
CC(Cc1ccc(O)c(O)c1)C(C)Cc1ccc(O)c(O)c1 (stereo unspecified) [NORDIHYDROGUAIARETIC ACID] | – | Not Active | – | – | – | 81% | – | – | – | – | – | – | – | – | – | – | – | – | –
NCCCCNCCCN [SPERMIDINE] | – | Not Active | – | Not Active | – | Not Active | – | Not Active | – | – | – | – | – | – | – | – | – | – | –
NCCCNCCCCNCCCNC(=O)CC1c2cccc(O)c2C(=O)c2c(O)cccc21.O=C(O)C(F)(F)F.O=C(O)C(F)(F)F.O=C(O)C(F)(F)F | – | Not Active | Non-toxic | 87% | – | 93% | – | Not Active | – | – | – | – | – | – | – | – | – | – | –
CCOC(=O)CC1c2cccc(O)c2C(=O)c2c(O)cccc21 | 44.5 | Active | Non-toxic | 14% | 0.63 | 31% | – | – | 47 | 0.357 | 53.4 | 28.8 | 6.5 | 49.9 | – | – | – | – | –
COc1ccc(CNC(=O)CC2c3cccc(O)c3C(=O)c3c(O)cccc32)cc1OC | 61.5 | Not Active | Non-toxic | 65% | – | 61% | – | – | 18.5 | – | 13.3 | 3 | 0 | 12.3 | – | – | – | – | –
O=C1c2cccc(Cl)c2Cc2c(Cl)cccc21 | – | – | – | – | – | – | – | – | – | – | – | – | – | – | Unstable | – | – | – | –
NCCCNCCCCNCCCN [SPERMINE] | – | Not Active | – | Not Active | – | 4% | – | Not Active | – | – | – | – | – | – | – | – | – | – | –
NCCCCN(CCCN)C(=O)CC1c2cccc(O)c2C(=O)c2c(O)cccc21.O=C(O)C(F)(F)F.O=C(O)C(F)(F)F | – | Not Active | Non-toxic | 74% | – | 48% | – | – | – | – | – | – | – | – | – | 26 | – | – | –
COc1ccc(C(NC(=O)CC2c3cccc(O)c3C(=O)c3c(O)cccc32)c2ccc(OC)cc2)cc1 | 7 | Active | Non-toxic | 95% | 0.66 | 86% | 79.7 | – | 79.8 | 0.56 | 44 | 20.3 | 9.65 | 38 | – | – | Stable | Stable | –
CCCCNC(=O)CC1c2cccc(O)c2C(=O)c2c(O)cccc21 | 10 | Active | Non-toxic | 59% | 0.05 | 31% | 35 | – | 87.2 | 5.4 | 83.7 | 24.4 | 13.7 | 80.9 | – | – | – | – | –
O=C(O)CC1c2cccc(O)c2C(=O)c2c(O)cccc21 | 50 | Active | Non-toxic | 20% | – | 25% | 13 | – | 87.1 | 1.9 | 58 | 42 | 41.2 | 60.4 | – | – | – | – | –
COc1ccc(CNC(=O)CC2c3cccc(O)c3C(=O)c3c(O)cccc32)c(OC)c1 | 50 | Not Active | Non-toxic | 81% | – | 87% | – | – | 92.3 | 10 | 134 | 8.42 | 0.05 | 135 | – | – | – | – | –
CC(C)(C)OC(=O)NCCCN(CCCCN(CCCNC(=O)CC1c2cccc(O)c2C(=O)c2c(O)cccc21)C(=O)OC(C)(C)C)C(=O)OC(C)(C)C | – | Not Active | Non-toxic | 93% | – | 29% | – | Not Active | – | – | – | – | – | – | – | – | – | – | –
CCCCCCCCCCCCNC(=O)CC1c2cccc(O)c2C(=O)c2c(O)cccc21 | – | Not Active | Non-toxic | 74% | – | 98% | – | – | 55.9 | 0.022 | 37.7 | 7.79 | 1.22 | 14.6 | – | 32 | – | – | –
O=C1c2c(O)cccc2Cc2cccc(O)c21 [ANTHRALIN] | – | Active | Non-toxic | 28% | 0.7 | 31% | 42 | Not Active | 94.5 | 0.945 | 87.8 | 5.23 | 1.7 | 48.1 | – | – | – | – | 0.7
CC(C)(C)OC(=O)NCCCCNC(=O)CC1c2cccc(O)c2C(=O)c2c(O)cccc21 | – | Not Active | Non-toxic | 62% | – | 33% | – | – | – | – | – | – | – | – | – | 46 | – | – | –
O=C(CC1c2cccc(O)c2C(=O)c2c(O)cccc21)NCCc1ccc(O)c(O)c1 | – | Not Active | Non-toxic | 5% | – | 32% | – | – | 91.1 | 100 | 114 | 128 | 2.98 | 112 | – | 42 | – | – | –
NCCCCNC(=O)CC1c2cccc(O)c2C(=O)c2c(O)cccc21.O=C(O)C(F)(F)F | – | Not Active | Non-toxic | 91% | 0.63 | 65% | – | – | – | – | – | – | – | – | – | 35 | – | – | –
COc1ccc(C(NC(C)=O)c2ccc(OC)cc2)cc1 | 100 | Not Active | Non-toxic | 94% | – | Not Active | 45 | – | – | – | – | – | – | – | – | – | – | – | –
Cc1c(C)c2c(c(C)c1O)CCC(C)(C(=O)O)O2 (stereo unspecified) [TROLOX] | – | – | – | 63% | – | – | – | – | – | – | – | – | – | – | – | – | – | – | –
NCCc1ccc(O)c(O)c1 [DOPAMINE] | 100 | Not Active | – | 43% | – | 86% | 13 | – | – | – | – | – | – | – | – | – | – | – | –
CC(C)(C)OC(=O)CC1c2cccc(O)c2C(=O)c2c(O)cccc21 | – | Active | Non-toxic | 79% | – | 9% | – | Not Active | – | – | – | – | – | – | – | – | – | – | –
